The results in this text go back to US5015639A, “Substituted benzazepines, their preparation and pharmaceutical compositions containing them” (Schering Corporation, priority 1989, dated 1991).

Structures are written as SMILES. Like-named read-outs stand apart in the source and are kept apart here.

The target of assay [1] is T1, D-2 receptor (Rattus norvegicus, UniProt P61169).
T1 construct: Striatal tissue was excised, pooled, and homogenized; tissue Charles River Breeding Laboratories, Mass; (animals); host or cells: striatum of male Sprague-Dawley rats, washed membrane pellet
T1 sequence (P61169 whole entry): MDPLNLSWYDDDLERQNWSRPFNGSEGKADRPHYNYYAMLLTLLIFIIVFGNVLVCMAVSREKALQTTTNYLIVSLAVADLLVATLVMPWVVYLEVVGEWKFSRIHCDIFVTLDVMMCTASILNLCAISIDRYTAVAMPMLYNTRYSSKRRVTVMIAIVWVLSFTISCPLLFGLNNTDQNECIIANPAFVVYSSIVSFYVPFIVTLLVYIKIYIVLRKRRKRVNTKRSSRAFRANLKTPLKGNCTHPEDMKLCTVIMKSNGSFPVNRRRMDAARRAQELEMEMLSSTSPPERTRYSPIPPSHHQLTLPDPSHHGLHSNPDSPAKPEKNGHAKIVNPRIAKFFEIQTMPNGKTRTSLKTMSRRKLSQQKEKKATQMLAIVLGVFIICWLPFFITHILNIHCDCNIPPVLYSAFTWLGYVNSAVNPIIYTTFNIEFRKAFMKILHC
Put plainly: Competitive inhibition assay vs. 3H-spiperone (D-2 receptor binding). Conditions: rat striatal homogenate, 0.2 nM 3H-spiperone, pH 7.4, 37° C., 15 min. Further details: species or system Male Sprague-Dawley rat (striatal tissue). Here is the method: (§1) Many compounds capable of effecting reproducible physiological changes in neural tissues are believed to operate by binding at one or more receptor sites.
(§2) Tritiated SCH 23390 and tritiated spiperone (a potent D-2 ligand) were obtained as described in the Billard et al. reference supra and serially diluted in 0.05 M Tris buffer, pH 7.4, as required. A compound of the invention is diluted in 0.05 M Tris buffer, pH 7.4, as required.
(§3) Male Sprague-Dawley rats (200 to 250 g) from Charles River Breeding Laboratories, Mass. were used to obtain brain tissue. The rats were humanely sacrificed and their brains removed and placed on ice. Striatal tissue was excised, pooled, and homogenized (Brinkman Polytron, 10 sec) in 100 volumes (w/v) of ice cold 50 mM Tris buffer, pH 7.4 (at 25° C.). The homogenate was centrifuged at 20,000 xg for 10 min. The resultant pellet was rehomogenized in Tris buffer and centrifuged again. The final pellet was resuspended in 50 mM Tris buffer pH 7.4 containing 120 mM NaCl, 5 mM KCl, 2 mM CaCl2, and 1 mM MgCl2.
(§4) Polypropylene incubation tubes received 100 μl of the individual test compounds at various concentrations dissolved or suspended in 0.05 M Tris, pH 7.4 containing 4 mg/ml methylcellulose, 100 μl of a solution of ^3 H-SCH 23390 in Tris buffer (final reaction mixture concentration =0.3 nM) or 100 μl of a solution of 3H-spiperone in Tris buffer (final concentration =0.2 nM) and 800 μl of tissue suspension (ca. 3 mg/assay). Tubes were incubated at 37° C. for 15 minutes and rapidly vacuum filtered through Whatman GF/B filters and rinsed 4 times with 4 ml of ice cold 50 mM Tris buffer, pH 7.4. The filters were transferred to scintillation vials, equilibated with 10 ml of scintillant (Scintosol, Isolab, Inc.) for 16 hours at 25° C. and the radioactivity determined in a liquid scintillation counter. Ki values were determined as described by Billard et al. using the relationship Ki =IC50 /(1+([L]/KD)) wherein IC50 =concentration of test drug necessary to displace 50% of specifically bound ^3 H-Sch 23390, [L]=concentration of radioligand used in the assay, and KD =dissociation constant.

Assay [2] deals with conditioned avoidance response (CAR). The assay is described as follows: Conditioned avoidance suppression in rats (Rat CAR). Format: in vivo. To be noted: lowest dose that significantly (P<0.05) reduced avoidance responding, read-out: Rat CAR, minimal effective dose (MED). The protocol: N. Y. Acad. Sci. 66, 740 (1957)}. A series of experiments was carried out to assess the ability of the compounds of this invention to suppress the conditioned avoidance response (CAR) in rats.
Rats were required to jump onto a platform located 6.75 inches (17.15 cm) above the grid floor of an experimental chamber in response to a 5-second tone to avoid a 10-second foot shock (0.6 ma). Each experimental session consisted of 20 such trials presented at 30-second intervals. A correct CAR is scored whenever the rat jumps onto the platform during the tone (prior to foot shock). An escape response is scored when the rat jumps onto the platform during a shock. A response failure is defined as the lack of an escape response during the 10-second shock period.
Groups of 6-8 rats were trained in two consecutive days (total of 40 trials). Rats that reached criterion on day 2 (correct CARs on 16 or more of the 20 trials) were treated with either a test drug or vehicle on day 3. Suppression of CAR was analyzed statistically using Student's t-test comparing the performances of drug-treated to vehicle-treated rats.

The target of assay [3] is T2, dopamine D-1 receptor (Rattus norvegicus, UniProt P18901).
T2 construct: Striatal tissue was excised, pooled, and homogenized; tissue Charles River Breeding Laboratories, Mass; (animals); host or cells: striatum of male Sprague-Dawley rats, washed membrane pellet
T2 sequence (P18901 whole entry): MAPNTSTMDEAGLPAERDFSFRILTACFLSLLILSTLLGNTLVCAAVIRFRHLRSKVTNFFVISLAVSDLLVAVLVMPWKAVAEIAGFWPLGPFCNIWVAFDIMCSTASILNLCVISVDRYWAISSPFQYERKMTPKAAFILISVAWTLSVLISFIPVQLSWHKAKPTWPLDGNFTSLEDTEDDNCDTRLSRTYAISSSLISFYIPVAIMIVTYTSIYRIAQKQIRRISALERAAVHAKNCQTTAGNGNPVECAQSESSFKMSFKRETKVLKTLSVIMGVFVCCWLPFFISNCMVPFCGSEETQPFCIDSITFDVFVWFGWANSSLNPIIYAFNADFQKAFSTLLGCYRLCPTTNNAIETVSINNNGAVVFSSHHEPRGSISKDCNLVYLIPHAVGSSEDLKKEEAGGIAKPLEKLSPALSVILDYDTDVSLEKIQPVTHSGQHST
Put plainly: Competitive inhibition assay vs. 3H-SCH 23390 (dopamine D-1 receptor binding). To be noted: rat striatal homogenate, 0.3 nM 3H-SCH 23390, pH 7.4, 37° C., 15 min; read-out: Ki vs. 3H-SCH 23390. The arrangement: species or system Male Sprague-Dawley rat (striatal tissue). The protocol:
as §1, §2, §3, §4

As to `CN1CCc2cc(Cl)c(O)cc2C(OCCc2ccccc2)C1` (stereo not shown) [Compound 11, 8-chloro-5-(phenethyloxy)-3-methyl-2,3,4,5-tetrahydro-lH-3-benzazepine-7-ol], the inhibition constant Ki (as a rule, a dissociation constant, usually derived from enzyme kinetics or from competition with a known ligand) in assay [1] was 1020 nM; in assay [3] it was 8 nM. Moreover, the minimal effective dose (in general, the smallest amount tested that counted as effective) in assay [2] (po) was greater than 30 mg/kg; in assay [2] (sc) it was 1 mg/kg.
